Results from patent publication US20100285959A1, “HERBICIDAL MIXTURES” (priority 2006, published 2010).

Tests used:
[1] = system: Pennsylvania smartweed (POLPY); test: Test 1 field trial, preemergence; type: in vivo, Polygonum pensylvanicum
From the text: (§1) Corn seeds (hybrid ‘Pioneer 34N43’) were planted in mid spring season, 3.8 cm deep in a silt loam soil having 4.6% organic matter and a pH of 6. Plots were 10.7 m long by 1.5 m wide with rows spaced 76 cm apart. Seeds were spaced 18 cm apart within the rows. The field was managed using conventional tillage practices. […] Results are summarized in Table 1 and are the means of the three replicates. […] Colby's Equation (Colby, S. R. “Calculating Synergistic and Antagonistic Responses of Herbicide Combinations,” Weeds, 15(1), pp 20-22 (1967)) calculates the expected additive effect of herbicidal mixtures, and for two active ingredients is of the form:
(§2) Pa+b=Pa+Pb−(PaPb/100) • wherein Pa+b is the percentage effect of the mixture expected from additive contribution of the individual components, • Pa is the observed percentage effect of the first active ingredient at the same use rate as in the mixture, and • Pb is the observed percentage effect of the second active ingredient at the same use rate as in the mixture.

[2] = system: corn (ZEAMD); test: Test 1 field trial, preemergence; type: in vivo, Zea mays ssp. indentata; conditions: hybrid Pioneer 34N43, corn (Zea mays ssp. indentata), in vivo
From the text: as §1, §2

[3] = system: giant foxtail (SETFA); test: Test 10 field trial, preemergence; type: in vivo, Setaria faberi; conditions: 28 DAA
From the text: (§3) Corn seeds (hybrid ‘Pioneer 33P65 RR’) were planted in mid spring season, 2.5 cm deep in a silt loam soil. Plots were 9.1 m long by 3.0 m wide with rows spaced 76 cm apart. The field was managed using conventional tillage practices. […] Results are the means of the three replicates.

[4] = system: tropical spiderwort (COMBE); test: Test 11 field trial, preemergence; type: in vivo, Commelina benghalensis; set-up: scale not given here; conditions: alone or + atrazine 1500 or metolachlor 2500
From the text: (§4) Corn seeds (hybrid ‘Pioneer 3041’) were planted in mid spring season, 5 cm deep in a clay soil having 2.6% organic matter and a pH of 5.6. Plots were 8 m long by 1.5 m wide with rows spaced 80 cm apart. Seeds were spaced 15 cm apart within the rows. The field was managed using conventional tillage practices. […] Treatments consisted of Compound 2 or
(§5) Goosegrass was not evaluated 16 or 91 days after application.

[5] = system: field pennycress (THLAR); test: Test 5 field trial, postemergence; type: in vivo, Thlaspi arvense
From the text: Corn seeds (hybrid ‘Pioneer 38H69’) were planted in mid spring season, 5.1 cm deep in a silty clay loam soil having 3% organic matter and a pH of 6.5. Plots were 9.1 m long by 3.0 m wide with rows spaced 76 cm apart. The field was managed using conventional tillage practices. […] All treatments included a surfactant except glufosinate treatments, both alone and in combination. […] Results are summarized in Table 5 and are the means of the three replicates.

[6] = system: Pennsylvania smartweed (POLPY); test: Test 8 field trial, preemergence; type: in vivo, Polygonum pensylvanicum
From the text: Corn seeds (hybrid ‘Pioneer 31G96’) were planted in mid spring season, 3.8 cm deep in a clay loam soil having 2% organic matter and a pH of 6.6. Plots were 6.1 m long by 3.0 m wide with rows spaced 76 cm apart. Seeds were spaced 15 cm apart within the rows. The field was managed using conventional tillage practices. […] A few of the weed species could not be evaluated at every timing. […] Results are the means of the three replicates.

[7] = system: yellow foxtail (SETLU); test: Test 1 field trial, preemergence; type: in vivo, Setaria glauca; conditions: 56 DAA
From the text: as §1, §2

[8] = system: southern sandbur (CCHEC); test: Test 11 field trial, preemergence; type: in vivo, Cenchrus echinatus; set-up: scale not given here; conditions: alone or + atrazine 1500 or metolachlor 2500
From the text: as §4, §5

[9] = system: velvetleaf (ABUTH); test: Test 6 field trial, postemergence; type: in vivo, Abutilon theophrasti
From the text: (§6) Corn seeds (hybrid ‘Pioneer 35Y62’) were planted in mid spring season, 3.8 cm deep in a silt loam soil having 4% organic matter and a pH of 5.8. Plots were 10.7 m long by 1.5 m wide with rows spaced 76 cm apart. Seeds were spaced 18 cm apart within the rows. The field was managed using conventional tillage practices. […] All treatments included a surfactant except glufosinate treatments, both alone and in combination. […] Results are summarized in Table 6 and are the means of the three replicates.

[10] = system: common waterhemp (AMATA); test: Test 10 field trial, preemergence; type: in vivo, Amaranthus tamariscinus; conditions: 28 DAA
From the text: as §3

[11] = system: giant foxtail (SETFA); test: Test 1 field trial, preemergence; type: in vivo, Setaria faberi
From the text: as §1, §2

[12] = system: velvetleaf (ABUTH); test: Test 1 field trial, preemergence; type: in vivo, Abutilon theophrasti
From the text: as §1, §2

[13] = system: yellow foxtail (SETLU); test: Test 6 field trial, postemergence; type: in vivo, Setaria glauca
From the text: as §6

[14] = system: common lambsquarters (CHEAL); test: Test 1 field trial, preemergence; type: in vivo, Chenopodium album
From the text: as §1, §2

[15] = 28 DAA, g a.i./ha: Cpd 2 50, S-Metolachlor 1870
[16] = 28 DAA, g a.i./ha: Cpd 2 100, Atrazine 1680, S-Metolachlor 1870
[17] = 28 DAA, g a.i./ha: Cpd 2 150, S-Metolachlor 1870
[18] = 56 DAA, g a.i./ha: Cpd 2 50, S-Metolachlor 1870
[19] = 56 DAA, g a.i./ha: Cpd 2 100, Atrazine 1680, S-Metolachlor 1870
[20] = 56 DAA, g a.i./ha: Cpd 2 150, S-Metolachlor 1870
[21] = g a.i./ha: Cpd 2 50, S-Metolachlor 1870
[22] = g a.i./ha: Cpd 2 100, Atrazine 1680, S-Metolachlor 1870
[23] = g a.i./ha: Cpd 2 150, S-Metolachlor 1870
[24] = 16 DAA, Cpd 2/Cpd 1 at 62 g a.i./ha
[25] = 16 DAA, Cpd 2/Cpd 1 at 125 g a.i./ha
[26] = 30 DAA, Cpd 2/Cpd 1 at 62 g a.i./ha
[27] = 30 DAA, Cpd 2/Cpd 1 at 125 g a.i./ha
[28] = 44 DAA, Cpd 2/Cpd 1 at 62 g a.i./ha
[29] = 44 DAA, Cpd 2/Cpd 1 at 125 g a.i./ha
[30] = 62 DAA, Cpd 2/Cpd 1 at 62 g a.i./ha
[31] = 62 DAA, Cpd 2/Cpd 1 at 125 g a.i./ha
[32] = 91 DAA, Cpd 2/Cpd 1 at 62 g a.i./ha
[33] = 91 DAA, Cpd 2/Cpd 1 at 125 g a.i./ha

With `COC(=O)c1nc(C2CC2)nc(N)c1Cl` [Compound 2, methyl 6-amino-5-chloro-2-cyclopropyl-4-pyrimidinecarboxylate] the “POLPY Obs” value [1, 15] was 0, the “POLPY Obs” value [1, 16] was 0 and the “POLPY Obs” value [1, 17] was 0. For the same compound, the “POLPY Obs” value [1, 18] was 0, the “POLPY Obs” value [1, 19] was 0 and the “POLPY Obs” value [1, 20] was 0. For the same compound, the “ZEAMD Obs” value ([2]; 28 days after application) was 0, the “ZEAMD Obs” value ([2]; 56 days after application) was 0 and the “SETFA Obs” value [3, 21] was 13%. For the same compound, the “SETFA Obs” value [3, 22] was 7%, the “SETFA Obs” value [3, 23] was 20% and the “COMBE Obs” value [4, 24] was 40. The “COMBE Obs” value [4, 25] was 60, the “COMBE Obs” value [4, 26] was 40 and the “COMBE Obs” value [4, 27] was 60. The “COMBE Obs” value [4, 28] was 40, the “COMBE Obs” value [4, 29] was 60 and the “COMBE Obs” value [4, 30] was 0. The “COMBE Obs” value [4, 31] was 40, the “COMBE Obs” value [4, 32] was 0 and the “COMBE Obs” value [4, 33] was 40. The “THLAR Obs” value ([5]; 16 DAA, Cpd 2 30 g a.i./ha alone or with glufosinate 470 or glyphosate 1120) was 37%, the “THLAR Obs” value ([5]; 16 DAA, Cpd 2 60 g a.i./ha alone or with atrazine 1120, glufosinate 470 or glyphosate 1120) was 42% and the “THLAR Obs” value ([5]; 31 DAA, Cpd 2 30 g a.i./ha alone or with glufosinate 470 or glyphosate 1120) was 0%. The “THLAR Obs” value ([5]; 31 DAA, Cpd 2 60 g a.i./ha alone or with atrazine 1120, glufosinate 470 or glyphosate 1120) was 2%, the “POLPY Obs” value ([6]; 19 DAA, g a.i./ha: Cpd 2 50) was 28% and the “POLPY Obs” value ([6]; 19 DAA, g a.i./ha: Cpd 2 100) was 60%. The “POLPY Obs” value ([6]; 19 DAA, g a.i./ha: Cpd 2 150) was 65%, the “POLPY Obs” value ([6]; 29 DAA, g a.i./ha: Cpd 2 50, S-Metolachlor 1870) was 30% and the “POLPY Obs” value ([6]; 29 DAA, g a.i./ha: Cpd 2 100, Atrazine 1680, S-Metolachlor 1870) was 50%. The “POLPY Obs” value ([6]; 29 DAA, g a.i./ha: Cpd 2 150, S-Metolachlor 1870) was 70%, the “POLPY Obs” value ([6]; 56 DAA, g a.i./ha: Cpd 2 50) was 55% and the “POLPY Obs” value ([6]; 56 DAA, g a.i./ha: Cpd 2 100, Atrazine 1680) was 75%. The “POLPY Obs” value ([6]; 56 DAA, g a.i./ha: Cpd 2 150) was 95%, the “SETLU Obs” value [7, 21] was 0 and the “SETLU Obs” value [7, 22] was 0. The “SETLU Obs” value [7, 23] was 0, the “CCHEC Obs” value [8, 24] was 0 and the “CCHEC Obs” value [8, 25] was 40. The “CCHEC Obs” value [8, 26] was 0, the “CCHEC Obs” value [8, 27] was 40 and the “CCHEC Obs” value [8, 28] was 0. The “CCHEC Obs” value [8, 29] was 0, the “CCHEC Obs” value [8, 30] was 0 and the “CCHEC Obs” value [8, 31] was 0. For the same compound, the “CCHEC Obs” value [8, 32] was 0, the “CCHEC Obs” value [8, 33] was 0 and the “ABUTH Obs” value ([9]; 14 DAA, 30 g a.i./ha) was 0%. For the same compound, the “ABUTH Obs” value ([9]; 14 DAA, 60 g a.i./ha) was 0%, the “ABUTH Obs” value ([9]; 28 DAA, 30 g a.i./ha) was 0% and the “ABUTH Obs” value ([9]; 28 DAA, 60 g a.i./ha) was 0%. The “AMATA Obs” value [10, 21] was 20%, the “AMATA Obs” value [10, 22] was 10% and the “AMATA Obs” value [10, 23] was 23%. For the same compound, the “SETFA Obs” value [11, 15] was 0, the “SETFA Obs” value [11, 16] was 0 and the “SETFA Obs” value [11, 17] was 0. For the same compound, the “SETFA Obs” value [11, 18] was 0, the “SETFA Obs” value [11, 19] was 0 and the “SETFA Obs” value [11, 20] was 0. For the same compound, the “ABUTH Obs” value [12, 15] was 0, the “ABUTH Obs” value [12, 16] was 0 and the “ABUTH Obs” value [12, 17] was 0. For the same compound, the “ABUTH Obs” value [12, 18] was 0, the “ABUTH Obs” value [12, 19] was 0 and the “ABUTH Obs” value [12, 20] was 10. For the same compound, the “SETLU Obs” value ([13]; 14 DAA, 30 g a.i./ha) was 0%, the “SETLU Obs” value ([13]; 14 DAA, 60 g a.i./ha) was 0% and the “SETLU Obs” value ([13]; 28 DAA, 30 g a.i./ha) was 0%. For the same compound, the “SETLU Obs” value ([13]; 28 DAA, 60 g a.i./ha) was 0%, the “CHEAL Obs” value [14, 15] was 0 and the “CHEAL Obs” value [14, 16] was 7. For the same compound, the “CHEAL Obs” value [14, 17] was 7, the “CHEAL Obs” value [14, 18] was 7 and the “CHEAL Obs” value [14, 19] was 55. The “CHEAL Obs” value [14, 20] was 100.
